Measurements taken from patent publication US9475848B2 (priority 2012, dated 2016).
“And” between values parts separate entries of the source, which are not always exact repeats. Identical values can stand only once. Like-named read-outs stand apart in the source and are kept apart here.

What was measured:
[1] = system: B. pertussis; assay type: cell-based, Bordetella pertussis
[2] = system: Bordetella pertussis; assay type: cell-based; settings: for accumulation of bvg^− cells: MgSO4 20 mM (series C), niacin 0.604 g/L (series B) or both, compared with series A
[3] = system: pertussis toxin (PT) production; assay type: cell-based, Bordetella pertussis
[4] = system: B. pertussis
[5] = COQ255: niacin 0.604 g/L in first two pre-cultures, 0.004 g/L thereafter

Structure (SMILES): O=C(O)[C@@H]1CCCN1 [proline]
- Final biomass (OD650 nm) ([1]; COQ278: proline 12 g/L, sodium glutamate 7 g/L, NaCl 0 g/L): 11.3 OD650nm
- Final biomass (OD650 nm) ([1]; COQ280: proline 1 g/L, sodium glutamate 20 g/L, NaCl 0 g/L): 9.7 OD650nm

Structure (SMILES): O=S(=O)([O-])[O-].[Mg+2] [MgSO4]
- accumulation of bvg^− cells [2]: significantly lower accumulation of bvg^− cells
- Proportion of bvg^− cells ([2]; Series C: MgSO4 20 mM, niacin 0.004 g/L, end of fourth culture, start 1%): 2%
- Proportion of bvg^− cells ([2]; Series C: MgSO4 20 mM, niacin 0.004 g/L, end of third culture, start 1%): 3%

Structure (SMILES): N[C@@H](CS)C(=O)O [L-cysteine]
- Final biomass (OD650 nm) ([1]; COQ280: L-cysteine 0.04 g/L): 9.7 OD650 nm
- Final biomass (OD650 nm) ([1]; COQ396: L-cysteine 0.2 g/L): 11.0 OD650 nm
- PT concentration at end of fermentation [3]: 19 mg/L and 13 mg/L
- Specific PT production at end of fermentation [3]: 2.0 mg L^−1 mg L^−1 OD650 nm^−1 and 1.2 mg L^−1 OD650 nm^−1
- decrease in PT production compared to COQ280 [3]: 32%

Structure (SMILES): O=P([O-])(O)O.[K+] [KH2PO4]
- Final biomass (OD650 nm) ([1]; COQ279: KH2PO4 0.8 g/L): 9.2 OD650 nm
- Final biomass (OD650 nm) ([1]; COQ280: KH2PO4 0.5 g/L): 9.7 OD650 nm
- PT concentration at end of fermentation [3]: 19 mg/L and 13 mg/L
- Specific PT production at end of fermentation [3]: 2.0 mg L^−1 mg L^−1 OD650 nm^−1 and 1.4 mg L^−1 OD650 nm^−1
- decrease in PT production compared to COQ280 [3]: 32%

Structure (SMILES): O=C(O)c1cccnc1 [niacin]
- Final biomass (OD650 nm) [1, 5]: 7.2 OD650 nm
- Total fermentation time [1, 5]: 43 h
- Final proportion of bvg^− in 20 L-fermentor [4]: 13%
- Initial proportion of bvg^− in 20 L-fermentor [4]: 3%
- number of generations for which control of bvg^− take-over is effective [2]: up to 100 generations
- accumulation of bvg^− cells [2]: significantly lower accumulation of bvg^− cells
- Proportion of bvg^− cells ([2]; Series A: niacin 0.004 g/L, no MgSO4, end of fourth culture, start 1%): 8%
- Proportion of bvg^− cells ([2]; Series A: niacin 0.004 g/L, no MgSO4, end of third culture, start 1%): 5%
- Proportion of bvg^− cells ([2]; Series B: niacin 0.604 g/L, no MgSO4, end of fourth culture, start 1%): 2%
- Proportion of bvg^− cells ([2]; Series B: niacin 0.604 g/L, no MgSO4, end of third culture, start 1%): 1%
- Proportion of bvg^− cells ([2]; Table 4 Series A: niacin 0.004 g/L, end of first culture, start 6%): 9%
- Proportion of bvg^− cells ([2]; Table 4 Series A: niacin 0.004 g/L, end of second culture, start 6%): 14%
- Proportion of bvg^− cells ([2]; Table 4 Series A: niacin 0.004 g/L, end of third culture, start 6%): 24%
- Proportion of bvg^− cells ([2]; Table 4 Series B: niacin 0.021 g/L, end of first culture, start 6%): 9%
- Proportion of bvg^− cells ([2]; Table 4 Series B: niacin 0.021 g/L, end of second culture, start 6%): 15%
- Proportion of bvg^− cells ([2]; Table 4 Series B: niacin 0.021 g/L, end of third culture, start 6%): 19%
- Proportion of bvg^− cells ([2]; Table 4 Series C: niacin 0.113 g/L, end of first culture, start 6%): 10%
- Proportion of bvg^− cells ([2]; Table 4 Series C: niacin 0.113 g/L, end of second culture, start 6%): 14%
- Proportion of bvg^− cells ([2]; Table 4 Series C: niacin 0.113 g/L, end of third culture, start 6%): 21%
- Proportion of bvg^− cells ([2]; Table 4 Series D: niacin 0.604 g/L, end of first culture, start 6%): 5%
- Proportion of bvg^− cells ([2]; Table 4 Series D: niacin 0.604 g/L, end of second culture, start 6%): 5%
- Proportion of bvg^− cells ([2]; Table 4 Series D: niacin 0.604 g/L, end of third culture, start 6%): 4%
- controlling the take-over of bvg^− cells ([2]; low niacin concentrations): less effective
- control of the take-over of bvg^− cells ([2]; niacin 0.6 g/L rather than 0.004 g/L, independently of initial proportion of bvg− cells): effectively control the take-over of bvg^− cells
- bvg^− take-over ([2]; niacin 0.604 g/L, up to 15 generations): no bvg^− take-over was observed
- PT concentration at end of fermentation [3]: 22.8 mg/L
- Specific PT production at end of fermentation [3]: 3.2 mg L^−1 OD650 nm^−1
